Reference: article PMC5326599 (Antiviral research, 2017)
“And” between values parts separate entries of the source, which are not always exact repeats. Equal values may be shown once. Read-outs that look alike come from different tables or passages of the source. Marks after values point to notes of the source that are not given here.

Key:
[1] = tested on: A/WSN/33 (M2-N31S + V27A) (H1N1) virus; type: cell-based, influenza A virus
[2] = tested on: influenza A/WSN/33 (M2-N31S + V27A) (H1N1) virus; design: species or system BALB/c mice; details: mouse, in vivo
[3] = tested on: A/Solomon Islands/3/2006 (H1N1) virus; assay: microbe, parasite or virus in culture; type: cell-based; details: read-out: EC50, A/Solomon Islands/3/2006 (H1N1)
[4] = tested on: A/WSN/33 (M2-N31S) (H1N1) virus; type: cell-based, influenza A virus; details: read-out: EC50, A/WSN/33 (M2-N31S) (H1N1)
[5] = tested on: A/Udorn/72 (H3N2) virus (M2-WT); assay: microbe, parasite or virus in culture; type: cell-based, influenza A virus
[6] = molecular target: A/Udorn/72 (M2-V27A) proton channel (Influenza A virus, UniProt P0DOF5, V27A); type: biochemical
[7] = molecular target: M2-S31N channel (Influenza A virus, UniProt P0DOF5, S31N); type: biochemical

SMILES | inhibition of plaque formation [1] | Mean Lung Parameters ± SD (Day 6): Hemorrhage Score [2] | Mean Lung Parameters ± SD (Day 6): Virus Titer [2] | Mean Lung Parameters ± SD (Day 6): Weight [2] | Survivors/Total [2] | protection from death [2] [%] | MDD ± SD (mean day of death) [2] | protection / effectiveness (in words) [2] | EC50 ([3]; Influenza A virus, H1N1, MDCK) [nM] | EC50 [4] [nM] | EC50 ([5]; Influenza A virus, H3N2, read-out: antiviral EC50 at passage 1) [nM] | channel conductance current at the second activation event, % of the maximum current [6] [%] | channel inhibition at 100 μM, M2-S31N [7] [%] | EC50 ([1]; read-out: Antiviral Efficacy EC50, A/WSN/33 (M2-N31S + V27A) (H1N1) M2-V27A) [nM] | EC50 [3] [nM] | EC50 ([5]; read-out: antiviral EC50 at passage 1) [nM] | EC50 ([5]; read-out: antiviral EC50 at passage 2) [nM]
CCC(CC)O[C@@H]1C=C(C(=O)O)C[C@H](N)[C@H]1NC(C)=O [Oseltamivir carboxylate (4), Oseltamivir carboxylate, reference compound] | complete inhibition |  |  |  |  |  |  |  |  |  |  |  |  |  |  |  | 
CCOC(=O)C1=C[C@@H](OC(CC)CC)[C@H](NC(C)=O)[C@@H](N)C1 [Oseltamivir (4), Oseltamivir] |  | 0.0 ± 0.0 | 2.5 ± 0.2 Log10 CCID50/g | 178 ± 28 mg | 10/10^*** | 100 |  |  |  |  |  |  |  |  |  |  | 
NC12CC3CC(CC(C3)C1)C2 [Amantadine (1), amantadine] |  |  | […] | […] | […] |  | […] | minimum effectiveness | […] | […] | […] |  |  |  |  |  | 
NC1CCC2(CC1)C1CC3CC(C1)CC2C3 (centres unmarked) [Compound 3, spiroadamantane amine] |  |  | […] | […] | […] |  | […] | highly protective |  | […] |  | […] | […] | […] | […] | […] | […]
